Assay results taken from PMC7708037, “Targeting OGG1 arrests cancer cell proliferation by inducing replication stress” (Nucleic Acids Research, 2020).
Where two headings read alike, the source gives them in different places. Each block holds one molecule with its values, some of them ahead of it.

Experiments:
OGG1 enzyme = OGG1 enzyme (Homo sapiens, UniProt O15527); test: OGG1 activity in vitro (biochemical assay); conditions: for IC50: 1 nM OGG1, 10 nM 8oxoA:C substrate, 2 nM APE1, read-out: IC50 of OGG1 inhibition
Description: OGG1 activity was assessed in vitro as previously described ([39]).
Figure 7. […] (A) Lack of TH5487 efficacy in vivo. A3 cells were injected subcutaneously in mice, allowed to graft for three days and then administered […] TH5487 orally, once a day on weekdays. Twelve days into the treatment, the dose was increased to 40 mg/kg. Data are average ± SD (n = 9 per treatment group). (B) TH5487 target engagement in A3 xenograft. Tumors were excised following termination, and TH5487 target engagement was analyzed by cellular thermal shift assay, using an antibody specific for the human OGG1 protein. Data are average ± SD (n = 4 different tumors per group). (C) Effect of bovine serum albumin on OGG1 inhibition by TH5487. A dilution series of TH5487 was incubated with OGG1 enzyme and a DNA reporter oligonucleotide containing an OGG1-substrate, in the presence or absence of 1% (w/v) bovine serum albumin. Data are average ± SD of four technical replicates from two independent experiments.
Supplementary Fig. S4: OGG1 inhibitors selectively inhibt cancer cell line proliferation A. TH5796 and TH6943 inhibit OGG1 activity in vitro. OGG1 enzyme was treated with the indicated concentration inhibitor in technical duplicates. The line connects the average values. TH5796 inhibits OGG1 with an […]
with the indicated concentrations of TH5796 or TH6943 and 10 nM 8oxoA:C substrate in the presence of 2 nM APE1 as described. B. Chemical structure of TH5487 and the analogues described in this work.
C. Correlation between TH5487 EC 50 values and TH5796 or TH6943. Cell lines were treated for five […]
experiments. The lines indicate the best fit linear regression line, and R 2 the corresponding coefficient of determination. D. to F. Cancer cell selectivity for TH5487 (D), TH5796 (E) and TH6943 (F). Cell lines were treated as in Fig. 3E, and each point represents the EC50 value determined from 1 –5 independent […]
(1 picture or pasted object on this page, not shown here)

Rec1 = test: Resazurin viability, 5 days; type: cell-based, human; conditions: Rec1, C, B cell non-Hodgkin's lymphoma
Description: (§1) Cells were seeded in 96- or 384-well plates and incubated for 3 days for combination experiments or 5 days for single-drug exposure experiments. Resazurin (R7017, SigmaAldrich) was added to a final concentration of 0.01 mg/ml resazurin and fluorescence was measured at ex530/em590 after incubation for 2, 4 or 6 h. Curves were fitted using XLfit software (IDBS) or Prism 8.0 (Graphpad Software), and EC50 values were determined.
(§2) Supplementary Table S1: Effect of OGG1 inhibitors on cancer and non-transformed cell lines.
(§3) Cell lines were incubated with a dilution series of the indicated compounds for 5 days, and viability
(§4) assessed with resazurin. EC50-values were calculated based on the resulting dose -response curves.
(§5) The number of independent experiments is indicated for each value.
(§6) C=cancer;N=non- Disease EC50 n= EC50 n= EC50 n=

Raji = test: Resazurin viability, 5 days; type: cell-based, human; conditions: C, Burkitt's lymphoma
Description: as §1, §2, §3, §4, §5, §6

KG1a = test: Resazurin viability, 5 days; type: cell-based, human; conditions: C, Acute myelogenous leukemia
Description: as §1, §2, §3, §4, §5, §6

Daudi = test: Resazurin viability, 5 days; type: cell-based, human; conditions: C, Burkitt's lymphoma
Description: as §1, §2, §3, §4, §5, §6

UO31 = test: Resazurin viability, 5 days; type: cell-based, human; conditions: UO31, C, Kidney carcinoma
Description: as §1, §2, §3, §4, §5, §6

M059J = test: Resazurin viability, 5 days; type: cell-based, human; conditions: C, Glioblastoma
Description: as §1, §2, §3, §4, §5, §6

HeLa = test: Resazurin viability, 5 days; type: cell-based, human; conditions: C, Cervix adenomcarcinoma
Description: as §1, §2, §3, §4, §5, §6

A498 = test: Resazurin viability, 5 days; type: cell-based, human; conditions: A498, C, Kidney carcinoma
Description: as §1, §2, §3, §4, §5, §6

786-0 = test: Resazurin viability, 5 days; type: cell-based, human; conditions: 786-0, C, Kidney adenocarcinoma
Description: as §1, §2, §3, §4, §5, §6

MV4-11 = test: Resazurin viability, 5 days; type: cell-based, human; conditions: MV4-11, C, Acute monocytic leukemia
Description: as §1, §2, §3, §4, §5, §6

SW480 = test: Resazurin viability, 5 days; type: cell-based, human; conditions: SW480, C, Colorectal adenocarcinoma
Description: as §1, §2, §3, §4, §5, §6

HT-29 = test: Resazurin viability, 5 days; type: cell-based, human; conditions: HT-29, C, Colorectal adenocarcinoma
Description: as §1, §2, §3, §4, §5, §6

VH10 = test: Resazurin viability, 5 days; type: cell-based, human; conditions: VH10, N, Non-transformed fibroblast
Description: as §1, §2, §3, §4, §5, §6

MRC5 = test: Resazurin viability, 5 days; type: cell-based, human; conditions: MRC5, N, Non-transformed lung fibroblast
Description: as §1, §2, §3, §4, §5, §6

BJ-Tert = test: Resazurin viability, 5 days; type: cell-based, human
Description: as §1, §2, §3, §4, §5, §6

MOLT4 = test: Resazurin viability, 5 days; type: cell-based, human; conditions: MOLT4, C, T-cell acute lymphoblastic leukemia
Description: as §1, §2, §3, §4, §5, §6

HCT116 = test: Resazurin viability, 5 days; type: cell-based, human; conditions: HCT116, C, Colorectal carcinoma
Description: as §1, §2, §3, §4, §5, §6

BJ-Ras = test: Resazurin viability, 5 days; type: cell-based, human; conditions: C, RAS-transformed fibroblast
Description: as §1, §2, §3, §4, §5, §6
(§7) transformed (µM) (µM) (µM) […]

LCL#2 = test: Resazurin viability, 5 days; type: cell-based, human; conditions: LCL#2, N, Non-transformed lymphoblastoid cell line
Description: as §1, §2, §3, §4, §5, §6, §7

RFX393 = test: Resazurin viability, 5 days; type: cell-based, human; conditions: RFX393, C, Kidney carcinoma
Description: as §1, §2, §3, §4, §5, §6, §7

LCL#1 = test: Resazurin viability, 5 days; type: cell-based, human; conditions: LCL#1, N, Non-transformed lymphoblastoid cell line
Description: as §1, §2, §3, §4, §5, §6, §7

Jurkat = test: Resazurin viability, 5 days; type: cell-based, human; conditions: C, T-cell acute lymphoblastic leukemia
Description: as §1, §2, §3, §4, §5, §6, §7

Reh = test: Resazurin viability, 5 days; type: cell-based, human; conditions: C, Acute lymphocytic leukemia (non-T, non-B)
Description: as §1, §2, §3, §4, §5, §6, §7

ACHN = test: Resazurin viability, 5 days; type: cell-based, human; conditions: C, Kidney adenocarcinoma
Description: as §1, §2, §3, §4, §5, §6, §7

A3 = test: Resazurin viability, 5 days; type: cell-based, human; conditions: A3, C, T-cell acute lymphoblastic leukemia
Description: as §1, §2, §3, §4, §5, §6
transformed (µM) (µM) (µM)

MEF Ogg1(-/-) = test: Resazurin viability, 5 days; type: cell-based; conditions: N, Non-transformed mouse embryonic fibroblast
Description: as §1, §2, §3, §4, §5, §6, §7

[1] = Homo sapiens, 120 h, BJ-Tert, N, Tert-Immortalized fibroblast, 5 days, resazurin, read-out: EC50

OGG1 enzyme, sequence (O15527 whole entry): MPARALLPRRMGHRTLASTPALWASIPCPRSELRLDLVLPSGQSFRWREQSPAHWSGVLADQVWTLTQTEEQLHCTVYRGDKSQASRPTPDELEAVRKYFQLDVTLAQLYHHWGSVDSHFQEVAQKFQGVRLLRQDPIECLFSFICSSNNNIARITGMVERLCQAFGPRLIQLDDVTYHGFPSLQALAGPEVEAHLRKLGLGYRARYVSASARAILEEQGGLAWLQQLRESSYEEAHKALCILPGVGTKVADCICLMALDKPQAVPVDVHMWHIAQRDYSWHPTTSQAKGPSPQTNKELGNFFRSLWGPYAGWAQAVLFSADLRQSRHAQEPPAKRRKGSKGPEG

Structure (SMILES): O=C(Nc1ccc(I)cc1)N1CCC(n2c(=O)[nH]c3c(Br)cccc32)CC1 [TH5487]
Effect of bovine serum albumin on OGG1 inhibition (OGG1 enzyme; presence of 1% (w/v) bovine serum albumin): marked loss of inhibition of OGG1 enzyme activity
EC50 (Rec1): 13.7 µM
EC50 (Raji): 19 µM
EC50 (KG1a): 14.3 µM
EC50 (Daudi): 16.6 µM
EC50 (UO31): 2.9 µM
EC50 (M059J): 26.1 µM
EC50 (HeLa): 19.3 µM
EC50 (A498): 28.5 µM
EC50 (786-0): 29.7 µM
EC50 (MV4-11): 7.8 µM
EC50 (SW480): 33.3 µM
EC50 (HT-29): 24.5 µM
EC50 (VH10): 32.4 µM
EC50 (MRC5): 42.4 µM
EC50 (BJ-Tert; BJ-Tert, N, Tert-Immortalized fibroblast, 5 days, resazurin, read-out: EC50): 33.7 µM
EC50 (BJ-Tert; hTERT-immortalized BJ fibroblasts, five days, Figure 3C, read-out: EC50 (viability)): 29.5 ± 4.7 µM
EC50 (MOLT4): 13.2 µM
EC50 (HCT116): 17.5 µM
EC50 (BJ-Ras): 4.8 µM
EC50 (LCL#2): 27.7 µM
EC50 (RFX393): 19.6 µM
EC50 (LCL#1): 31.1 µM
EC50 (Jurkat): 10.5 µM
EC50 (Reh): 18.3 µM
EC50 (ACHN): 2.3 µM
EC50 (A3): 10 µM
EC50 (MEF Ogg1(-/-)): 47.7 µM

IC50 (OGG1 enzyme): 0.766 µM
EC50 (Raji; Homo sapiens, 120 h): 20.5 µM
EC50 (Daudi; Homo sapiens, 120 h): 10.1 µM
EC50 (HeLa; Homo sapiens, 120 h): 15.8 µM
EC50 (786-0; Homo sapiens, 120 h): 15.2 µM
EC50 (MV4-11; Homo sapiens, 120 h): 6.5 µM
EC50 (SW480; Homo sapiens, 120 h): 20.3 µM
EC50 (HT-29; Homo sapiens, 120 h): 22.6 µM
EC50 (MOLT4; Homo sapiens, MOLT-4, 120 h): 12.6 µM
EC50 (HCT116; Homo sapiens, HCT-116, 120 h): 14.7 µM
EC50 (Jurkat; Homo sapiens, 120 h): 13.8 µM
EC50 (ACHN; Homo sapiens, 120 h): 8.5 µM
Structure (SMILES): O=C(Nc1ccc(Cl)c(Cl)c1)N1CCC(n2c(=O)[nH]c3c(-c4ccc(CO)nc4)cccc32)CC1 [TH5796, N-(3,4-Dichlorophenyl)-4-[4-[6-(hydroxymethyl)-3-pyridyl]-2-oxo-3H-benzimidazol-1-yl]piperidine-1-carbox amide]
EC50 (Rec1; Homo sapiens, 120 h): 12.6 µM
EC50 (KG1a; Homo sapiens, KG-1a, 120 h): 18 µM
EC50 (UO31; Homo sapiens, UO-31, 120 h): 7.1 µM
EC50 (M059J; Homo sapiens, 120 h): 20.6 µM
EC50 (A498; Homo sapiens, 120 h): 21.2 µM
EC50 (VH10; Homo sapiens, 120 h): 20.9 µM
EC50 (MRC5; Homo sapiens, 120 h): 20.8 µM
EC50 (BJ-Tert; [1]): 24.4 µM
EC50 (BJ-Ras; Homo sapiens, 120 h): 15.1 µM
EC50 (LCL#2; Homo sapiens, 120 h): 40.7 µM
EC50 (RFX393; Homo sapiens, 120 h): 14.2 µM
EC50 (LCL#1; Homo sapiens, 120 h): 33.5 µM
EC50 (Reh; Homo sapiens, 120 h): 14.7 µM
EC50 (A3; Homo sapiens, 120 h): 7.9 µM
EC50 (MEF Ogg1(-/-); 120 h): 45.8 µM

IC50 (OGG1 enzyme): 0.17 µM
EC50 (Raji; Homo sapiens, 120 h): 23.4 µM
EC50 (Daudi; Homo sapiens, 120 h): 12.1 µM
EC50 (HeLa; Homo sapiens, 120 h): 34.9 µM
EC50 (786-0; Homo sapiens, 120 h): 33 µM
EC50 (MV4-11; Homo sapiens, 120 h): 9.6 µM
EC50 (SW480; Homo sapiens, 120 h): 29.8 µM
EC50 (HT-29; Homo sapiens, 120 h): 22 µM
EC50 (MOLT4; Homo sapiens, MOLT-4, 120 h): 17.4 µM
EC50 (HCT116; Homo sapiens, HCT-116, 120 h): 28.6 µM
EC50 (Jurkat; Homo sapiens, 120 h): 15.2 µM
EC50 (ACHN; Homo sapiens, 120 h): 2.8 µM
Structure (SMILES): Cc1cc(NC(=O)N2CCC(n3c(=O)[nH]c4c(Br)cccc43)CC2)ccc1I [TH6943, 4-(4-Bromo-2-oxo-3H-benzimidazol-1-yl)-N-(4-iodo-3-methyl-phenyl)piperidine-1-carboxamide]
EC50 (Rec1; Homo sapiens, 120 h): 14.8 µM
EC50 (KG1a; Homo sapiens, KG-1a, 120 h): 18.8 µM
EC50 (UO31; Homo sapiens, UO-31, 120 h): 3.2 µM
EC50 (M059J; Homo sapiens, 120 h): 29.4 µM
EC50 (A498; Homo sapiens, 120 h): 35.1 µM
EC50 (VH10; Homo sapiens, 120 h): 47.5 µM
EC50 (MRC5; Homo sapiens, 120 h): 47.1 µM
EC50 (BJ-Tert; [1]): 30.5 µM
EC50 (BJ-Ras; Homo sapiens, 120 h): 14.1 µM
EC50 (LCL#2; Homo sapiens, 120 h): 32.3 µM
EC50 (RFX393; Homo sapiens, 120 h): 11.7 µM
EC50 (LCL#1; Homo sapiens, 120 h): 40 µM
EC50 (Reh; Homo sapiens, 120 h): 17.3 µM
EC50 (A3; Homo sapiens, 120 h): 9.8 µM
EC50 (MEF Ogg1(-/-); 120 h): 34.3 µM
